In publication PMC11574760, “Altering Active-Site Loop Dynamics Enhances Standalone Activity of the Tryptophan Synthase Alpha Subunit” (ACS Catalysis, 2024):

Key:
Assay in all cases: steady-state kinetics, coupled assay with GAP dehydrogenase (NAD+)
[1] = molecular target: T1, ZmTrpA^L6BX1 (ZmTrpA_L6zmBX1) (Zea mays, UniProt B2Y0K4, T232V/V233N/T238P/S243N/G244P/K245R); type: biochemical; conditions: retro-aldol cleavage; 100 mM EPPS/KOH pH 7.5, 180 mM KCl, 40 μM PLP, 6 mM NAD+, 20 mM Na3AsO4, 30 °C; no TrpB; cited from earlier work
T1 construct: gene TSA; ZmTrpA with loop 6 replaced by that of ZmBX1; without TrpB
Description: steady-state kinetics, coupled assay with GAP dehydrogenase (NAD+) on ZmTrpA^L6BX1 (ZmTrpA_L6zmBX1)

ZmTrpA^L6BX1 + ZmTrpB = molecular target: T2, ZmTrpA^L6BX1 + ZmTrpB (Zea mays, UniProt B2Y0K4, T232V/V233N/T238P/S243N/G244P/K245R, form not given); type: biochemical; conditions: retro-aldol cleavage, 100 mM EPPS/KOH pH 7.5, 180 mM KCl, 40 μM PLP, 6 mM NAD+, 20 mM Na3AsO4, 100 mM L-serine, 30 °C, variant ZmTrpA^SPM4-L6BX1
T2 construct: gene TSA; ZmTrpA with loop 6 of ZmBX1, in complex with ZmTrpB in excess; with Tryptophan synthase beta chain, chloroplastic
Description: steady-state kinetics, coupled assay with GAP dehydrogenase (NAD+) on ZmTrpA^L6BX1 + ZmTrpB

ZmTrpA + ZmTrpB = molecular target: T3, ZmTrpA + ZmTrpB (Zea mays, UniProt B2Y0K4); type: biochemical; conditions: retro-aldol cleavage, 100 mM EPPS/KOH pH 7.5, 180 mM KCl, 40 μM PLP, 6 mM NAD+, 20 mM Na3AsO4, 100 mM L-serine, 30 °C
T3 construct: gene TSA; alpha-beta-beta-alpha tryptophan synthase complex, TrpB in excess; construct details only in supplement; with Tryptophan synthase beta chain, chloroplastic
Description: steady-state kinetics, coupled assay with GAP dehydrogenase (NAD+) on ZmTrpA + ZmTrpB

[2] = substrate: O=P(O)(O)OC[C@@H](O)[C@@H](O)c1c[nH]c2ccccc12; type: biochemical, Zea mays; conditions: retro-aldol cleavage, 100 mM EPPS/KOH pH 7.5, 180 mM KCl, 40 μM PLP, 6 mM NAD+, 20 mM Na3AsO4, 30 °C, no TrpB
Description: steady-state kinetics, coupled assay with GAP dehydrogenase (NAD+) on ZmBX1

T3 sequence (B2Y0K4 entry or part of it): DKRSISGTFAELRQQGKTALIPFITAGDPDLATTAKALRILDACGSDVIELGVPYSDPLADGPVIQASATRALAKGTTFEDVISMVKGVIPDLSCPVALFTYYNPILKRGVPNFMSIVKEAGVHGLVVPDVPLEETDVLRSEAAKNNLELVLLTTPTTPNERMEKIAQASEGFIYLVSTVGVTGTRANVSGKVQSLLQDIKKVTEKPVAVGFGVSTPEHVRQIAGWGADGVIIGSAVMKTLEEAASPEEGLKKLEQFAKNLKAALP
T3 sequence (P43284 46-443, further chain): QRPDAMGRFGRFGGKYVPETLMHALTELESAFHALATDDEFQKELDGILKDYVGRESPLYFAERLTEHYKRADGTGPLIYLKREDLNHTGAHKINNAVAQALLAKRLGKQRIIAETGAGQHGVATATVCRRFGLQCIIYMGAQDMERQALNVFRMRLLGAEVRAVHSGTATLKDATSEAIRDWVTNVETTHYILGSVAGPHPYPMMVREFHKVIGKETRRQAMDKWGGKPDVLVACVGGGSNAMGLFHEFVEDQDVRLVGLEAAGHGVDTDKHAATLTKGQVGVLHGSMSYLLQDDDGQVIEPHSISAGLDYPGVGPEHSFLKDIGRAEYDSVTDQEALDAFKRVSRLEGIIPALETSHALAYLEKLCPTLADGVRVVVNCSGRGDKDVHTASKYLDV
T2 sequence (P43284 46-443, stated change not applied, form open): as the sequence (P43284 46-443, further chain) above
T2 sequence (B2Y0K4 entry or part of it T232V/V233N/T238P/S243N/G244P/K245R, form open): as the sequence (B2Y0K4 entry or part of it) above, with T179V, V180N, T185P, S190N, G191P, K192R counted along it
T1 sequence (B2Y0K4 entry or part of it T232V/V233N/T238P/S243N/G244P/K245R): as the sequence (B2Y0K4 entry or part of it) above, with T179V, V180N, T185P, S190N, G191P, K192R counted along it

Row | Km (ZmTrpA^L6BX1 + ZmTrpB) [µM] | Km (ZmTrpA + ZmTrpB; variant ZmTrpA^SPM4) [µM] | Km (ZmTrpA + ZmTrpB; variant ZmTrpA^SPM6) [µM] | Molecule | Km [1] [µM] | Km [2] [µM] | kcat [2] [s⁻¹] | kcat/Km [2] [M⁻¹ s⁻¹]
1 | 70 ± 12 | 134 ± 9 | 103 ± 13.1 | O=P(O)(O)OC[C@@H](O)[C@@H](O)c1c[nH]c2ccccc12 [indole-glycerol phosphate] | 3350 ± 340 | – | – | –
2 | – | – | – | ZmBX1 (Zea mays) (protein, standalone enzyme; construct details only in supplement) SRPVSDTMAALMAKGKTAFIPYITAGDPDLATTAEALRLLDGCGADVIELGVPCSDPYIDGPIIQASVARALASGTTMDAVLEMLREVTPELSCPVVLLSYYKPIMSRSLAEMKEAGVHGLIVPDLPYVAAHSLWSEAKNNNLELVLLTTPAIPEDRMKEITKASEGFVYLVSVNGVTGPRANVNPRVESLIQEVKKVTNKPVAVGFGISKPEHVKQIAQWGADGVIIGSAMVRQLGEAASPKQGLRRLEEYARGMKNALP | – | 11 ± 1.3 | 5.2 ± 0.13 | 474000 ± 56100
